Test results: PubChem BioAssay (NCI)
Several values for one entry are separate records, joined by “and”; a condition that tells them apart may be missing. Equal values may be shown once.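 Assay format: 96-well plates, 48-hour exposure. At the GI50, growth is halved. The concentration for full growth arrest is given as TGI.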

How the values were obtained:
Test in all cases: NCI tumour cell line growth inhibition, 48 h
[1] = tested on: 786-0 renal
[2] = tested on: A498 renal
[3] = tested on: A549 NSCLC
[4] = tested on: ACHN renal
[5] = tested on: BT-549 breast
[6] = tested on: CAKI-1 renal
[7] = tested on: CCRF-CEM leukemia
[8] = tested on: COLO 205 colon
[9] = tested on: DLD-1 colon
[10] = tested on: DMS 114 small cell lung
[11] = tested on: DMS 273 small cell lung
[12] = tested on: DU-145 prostate
[13] = tested on: EKVX NSCLC
[14] = tested on: HCC-2998 colon
[15] = tested on: HCT-116 colon
[16] = tested on: HCT-15 colon
[17] = tested on: HL-60(TB) leukemia
[18] = tested on: HOP-18 NSCLC
[19] = tested on: HOP-62 NSCLC
[20] = tested on: HS 578T breast
[21] = tested on: HT29 colon
[22] = tested on: IGROV1 ovarian
[23] = tested on: K-562 leukemia
[24] = tested on: KM12 colon
[25] = tested on: KM20L2 colon
[26] = tested on: LOX IMVI melanoma
[27] = tested on: LXFL 529 NSCLC
[28] = tested on: M14 melanoma
[29] = tested on: M19-MEL melanoma
[30] = tested on: MALME-3M melanoma
[31] = tested on: MCF7 breast
[32] = tested on: MDA-MB-231 breast
[33] = tested on: MDA-MB-435
[34] = tested on: MDA-N
[35] = tested on: MOLT-4 leukemia
[36] = tested on: NCI-H226 lung
[37] = tested on: NCI-H460 lung
[38] = tested on: NCI-H522 lung
[39] = tested on: NCI/ADR-RES ovarian
[40] = tested on: OVCAR-3 ovarian
[41] = tested on: OVCAR-4 ovarian
[42] = tested on: OVCAR-5 ovarian
[43] = tested on: OVCAR-8 ovarian
[44] = tested on: P388 leukemia
[45] = tested on: P388/ADR leukemia
[46] = tested on: PC-3 prostate
[47] = tested on: RPMI-8226 leukemia
[48] = tested on: RXF 393 renal
[49] = tested on: SF-268 CNS
[50] = tested on: SF-295 CNS
[51] = tested on: SF-539 CNS
[52] = tested on: SK-MEL-2 melanoma
[53] = tested on: SK-MEL-28 melanoma
[54] = tested on: SK-MEL-5 melanoma
[55] = tested on: SK-OV-3 ovarian
[56] = tested on: SN12C renal
[57] = tested on: SN12K1 renal
[58] = tested on: SNB-19 CNS
[59] = tested on: SNB-75 CNS
[60] = tested on: SR leukemia
[61] = tested on: SW-620 colon
[62] = tested on: T-47D breast
[63] = tested on: TK-10 renal
[64] = tested on: U251 CNS
[65] = tested on: UACC-257 melanoma
[66] = tested on: UACC-62 melanoma
[67] = tested on: UO-31 renal
[68] = tested on: XF 498 CNS
[69] = tested on: HOP-92 NSCLC
[70] = tested on: NCI-H23 lung
[71] = tested on: RXF-631 renal
[72] = tested on: SNB-78 CNS

Nc1ccn(C2OC(CO)C(O)C2O)c(=O)n1 (configuration not stated)
GI50 [1]: 0.396 µM
TGI [1]: > 100 µM and 388 µM and > 500 µM
GI50 [2]: 12 µM and 4.38 µM and 20.8 µM
TGI [2]: > 100 µM and 424 µM
GI50 [3]: 0.422 µM
GI50 [4]: 0.195 µM and 0.532 µM
TGI [4]: > 100 µM and > 35 µM and 151 µM
GI50 [5]: 7.08 µM
TGI [5]: > 500 µM
GI50 [6]: 0.107 µM
GI50 [7]: < 0.0107 µM and 0.00608 µM and 0.0148 µM
TGI [8]: > 500 µM
TGI [9]: > 500 µM
TGI [10]: 417 µM
TGI [11]: 344 µM
GI50 [12]: 0.536 µM
TGI [13]: > 500 µM
GI50 [14]: 1.69 µM
TGI [14]: > 100 µM and 429 µM and > 500 µM
GI50 [15]: 0.142 µM
TGI [15]: > 500 µM
TGI [16]: > 500 µM
GI50 [17]: 0.493 µM
GI50 [18]: 77.1 µM
TGI [18]: 250 µM
GI50 [19]: 0.237 µM
TGI [20]: > 500 µM
GI50 [21]: 2.01 µM
TGI [21]: > 500 µM
GI50 [22]: 37.9 µM
TGI [22]: > 500 µM
GI50 [23]: 0.477 µM and 0.464 µM and 4.64 µM
TGI [23]: > 500 µM
TGI [24]: > 500 µM
TGI [25]: > 482 µM
GI50 [26]: 0.829 µM
TGI [27]: > 500 µM
GI50 [28]: 0.103 µM and 0.285 µM and 0.976 µM
GI50 [29]: 15.6 µM
TGI [29]: > 500 µM
GI50 [30]: 0.0741 µM
GI50 [31]: 0.0408 µM
TGI [31]: > 100 µM and 434 µM and > 500 µM
TGI [32]: > 500 µM
GI50 [33]: 0.671 µM
TGI [33]: > 500 µM
TGI [34]: > 500 µM
GI50 [35]: 0.0103 µM and 0.0148 µM
GI50 [36]: 0.637 µM
TGI [36]: > 500 µM
GI50 [37]: 0.114 µM and 0.231 µM and 0.12 µM
TGI [37]: > 100 µM and 418 µM
TGI [38]: > 500 µM
GI50 [39]: 0.532 µM
GI50 [40]: 3.74 µM
TGI [40]: > 100 µM and 500 µM and > 500 µM
TGI [41]: > 500 µM
TGI [42]: > 100 µM and 392 µM and > 500 µM
GI50 [43]: 0.392 µM
TGI [43]: > 500 µM
TGI [44]: 1.81 µM
TGI [45]: 1.15 µM
GI50 [46]: > 46.3 µM
TGI [46]: > 500 µM
GI50 [47]: 3.75 µM
TGI [47]: > 500 µM
GI50 [48]: 13.6 µM
TGI [48]: > 500 µM
GI50 [49]: 1.01 µM
TGI [49]: > 500 µM
GI50 [50]: 0.661 µM
TGI [50]: > 100 µM and 417 µM and > 500 µM
GI50 [51]: 16.8 µM
TGI [52]: > 500 µM
TGI [53]: > 500 µM
GI50 [54]: 2.89 µM
GI50 [55]: 2.7 µM
TGI [55]: > 500 µM
GI50 [56]: 2.05 µM
TGI [56]: > 100 µM and 457 µM and > 500 µM
TGI [57]: > 500 µM
GI50 [58]: 2.19 µM
TGI [58]: > 100 µM and 469 µM and > 500 µM
TGI [59]: > 500 µM
TGI [60]: > 100 µM and > 29.3 µM and 53.7 µM
GI50 [61]: 0.847 µM
TGI [61]: > 100 µM and 462 µM and > 500 µM
GI50 [62]: 4.2 µM
TGI [62]: > 500 µM
TGI [63]: > 500 µM
GI50 [64]: 0.635 µM
TGI [64]: > 500 µM
GI50 [65]: 14.4 µM
TGI [65]: > 500 µM
GI50 [66]: 1.93 µM
GI50 [67]: 0.715 µM
TGI [68]: > 494 µM

C=CCN1CCC23c4c5ccc(O)c4OC2C(=NN=C2CCC4(O)C6Cc7ccc(O)c8c7C4(CCN6CC=C)C2O8)CCC3(O)C1C5 (configuration not stated)
TGI [1]: 35.3 µM
TGI [2]: 41.5 µM
TGI [3]: 42.8 µM
TGI [4]: 41.2 µM
TGI [6]: > 100 µM
TGI [7]: > 100 µM
TGI [8]: 42.1 µM
TGI [9]: > 100 µM
TGI [10]: 60.8 µM
TGI [11]: 37.7 µM
TGI [13]: > 100 µM
TGI [14]: 43.2 µM
TGI [16]: > 100 µM
TGI [18]: > 100 µM
TGI [19]: 44 µM
TGI [69]: 39.9 µM
TGI [21]: 37.6 µM
TGI [22]: > 100 µM
TGI [23]: 78.7 µM
TGI [24]: 42.4 µM
TGI [25]: 47.8 µM
TGI [26]: 41.1 µM
TGI [27]: 88.7 µM
TGI [28]: 32 µM
TGI [30]: 33.4 µM
TGI [35]: > 100 µM
TGI [36]: > 100 µM
TGI [70]: > 100 µM
TGI [37]: 43.7 µM
TGI [38]: 72.1 µM
TGI [40]: 34.5 µM
TGI [41]: 40.8 µM
TGI [42]: > 100 µM
TGI [43]: 61.7 µM
TGI [47]: > 100 µM
TGI [71]: 50.2 µM
TGI [49]: > 100 µM
TGI [50]: 40.9 µM
TGI [51]: 33.1 µM
TGI [52]: 33.8 µM
TGI [53]: 35.3 µM
TGI [54]: 36.3 µM
TGI [55]: > 100 µM
TGI [56]: 47.8 µM
TGI [58]: > 100 µM
TGI [59]: 34.2 µM
TGI [72]: 68 µM
TGI [61]: 48.9 µM
TGI [63]: 43.7 µM
TGI [64]: 34.9 µM
TGI [65]: 53.2 µM
TGI [66]: 44.4 µM
TGI [67]: > 100 µM
TGI [68]: 32.9 µM

COc1cc(/C=C/C(=O)Oc2ccc(NC(C)=O)cc2)ccc1C(=O)O/C=C/c1ccccc1
TGI [2]: > 100 µM
TGI [3]: > 100 µM
TGI [7]: > 100 µM
TGI [8]: > 100 µM
TGI [9]: > 100 µM
TGI [10]: > 100 µM
TGI [11]: > 100 µM
TGI [13]: > 100 µM
TGI [14]: > 100 µM
TGI [15]: > 100 µM
TGI [16]: > 100 µM
TGI [17]: > 100 µM
TGI [18]: > 100 µM
TGI [19]: > 100 µM
TGI [69]: > 100 µM
TGI [21]: > 100 µM
TGI [22]: > 100 µM
TGI [23]: > 31.6 µM
TGI [24]: > 100 µM
TGI [25]: > 100 µM
TGI [26]: > 100 µM
TGI [29]: > 100 µM
TGI [30]: > 100 µM
TGI [31]: > 100 µM
TGI [35]: > 100 µM
TGI [36]: > 100 µM
TGI [70]: > 100 µM
TGI [37]: > 100 µM
TGI [38]: > 100 µM
TGI [39]: > 100 µM
TGI [40]: > 100 µM
TGI [41]: > 100 µM
TGI [42]: > 100 µM
TGI [43]: > 100 µM
TGI [44]: > 100 µM
TGI [45]: > 100 µM
TGI [47]: > 100 µM
TGI [48]: > 100 µM
TGI [49]: > 100 µM
TGI [50]: > 100 µM
TGI [51]: > 100 µM
TGI [52]: > 100 µM
TGI [53]: > 100 µM
TGI [54]: > 100 µM
TGI [55]: > 100 µM
TGI [56]: > 100 µM
TGI [57]: > 100 µM
TGI [58]: > 100 µM
TGI [59]: > 100 µM
TGI [72]: > 100 µM
TGI [61]: > 100 µM
TGI [64]: > 100 µM
TGI [65]: > 100 µM
TGI [66]: > 100 µM
TGI [67]: > 100 µM
TGI [68]: > 100 µM
